Reference: US20070027118A1 (priority 2005, published 2007)

Tests used:
11β-hsd-1 enzyme [1] = biological target: T1, 11β-hsd-1 enzyme (Homo sapiens, UniProt P28845); experiment: biochemical
Summary of the method: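 Enzyme (5 nM) pre-incubated ≥30 min at RT with inhibitor and 500 μM NADPH in triethanolamine buffer pH 8.0; reaction started with glucose-6-phosphate regenerating system and 200 nM 3H-cortisone, stopped with DMSO after 60 min. Product quantified by radio-HPLC; Kiapp from Morrison tight-binding equation.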

11β-hsd-1 enzyme [2] = biological target: T1, 11β-hsd-1 enzyme; experiment: biochemical; settings: read-out: % Inh @ 0.1 mM
Summary of the method: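 Human 11β-HSD-1 (5 nM) pre-incubated ≥30 min with inhibitor and 500 μM NADPH in triethanolamine buffer pH 8.0 with NaCl, n-dodecyl β-D-maltoside and β-ME; reaction started with G6P/G6PDH/MgCl2 regenerating system and 200 nM 3H-cortisone, run 60 min, stopped with DMSO. 3H-cortisol and substrate separated by radio-HPLC; percent inhibition from peak areas.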

T1 sequence (P28845 whole entry, species assumed): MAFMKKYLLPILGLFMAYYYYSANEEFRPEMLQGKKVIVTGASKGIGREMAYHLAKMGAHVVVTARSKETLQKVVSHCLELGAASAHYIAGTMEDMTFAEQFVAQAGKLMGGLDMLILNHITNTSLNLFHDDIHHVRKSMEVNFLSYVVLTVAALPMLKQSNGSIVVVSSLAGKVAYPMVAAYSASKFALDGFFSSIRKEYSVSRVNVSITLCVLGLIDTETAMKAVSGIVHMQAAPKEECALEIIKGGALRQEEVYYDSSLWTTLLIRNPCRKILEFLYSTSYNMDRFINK

| Compound | Ki (11β-hsd-1 enzyme [1]) | inhibition (11β-hsd-1 enzyme [2]) | inhibition at 100 µM (11β-hsd-1 enzyme [2]; Table 2, inhibitor 0.1 mM as printed) |
| --- | --- | --- | --- |
| CCCC1CCCCN1S(=O)(=O)Nc1cccc(CC)n1 (stereo not shown) [Example 103, N-(6-ethylpyridin-2-yl)-2-propylpiperidine-1-sulfonamide] | 24 nM | 82.2% |  |
| CCc1cccc(NS(=O)(=O)N2CCCCC2c2ccc(F)cc2)n1 (stereo not shown) [Example 105, N-(6-ethylpyridin-2-yl)-2-(4-fluorophenyl)piperidine-1-sulfonamide] | 8.2 nM | 90.1% |  |
| CCc1cccc(NS(=O)(=O)N2CCC(C(F)(F)F)CC2)n1 [Example 106, N-(6-ethylpyridin-2-yl)-4-(trifluoromethyl)piperidine-1-sulfonamide] | 7 nM | 100% |  |
| CCc1cccc(NS(=O)(=O)N2CCC(C3CCN(C(=O)c4ccc(F)cc4)CC3)CC2)n1 [Example 108, N-(6-ethylpyridin-2-yl)-1′-(4-fluorobenzoyl)-44′-bipiperidine-1-sulfonamide] | 60 nM | 89% |  |
| CCc1cccc(NS(=O)(=O)N2CCC(Oc3ccc(Cl)cc3)CC2)n1 [Example 112, 4-(4-chlorophenoxy)-N-(6-ethylpyridin-2-yl)pipendine-1-sulfonamide] | 18 nM | 100% |  |
| CCc1cccc(NS(=O)(=O)N2CCCC(COc3ccccc3F)C2)n1 (stereo not shown) [Example 114, N-(6-ethylpyridin-2-yl)-3-[(2-fluorophenoxy)methyl]piperi-dine-1-sulfonamide] | 15 nM | 97.4% |  |
| CCc1cccc(NS(=O)(=O)N2CCC(C)CC2)n1 [Example 117, N-(6-ethylpyridin-2-yl)-4-methylpiperidine-1-sulfonamide] | 45 nM | 65.2% |  |
| CCc1cccc(NS(=O)(=O)N2CCCC(C)C2)n1 (stereo not shown) [Example 118, N-(6-ethylpyridin-2-yl)-3-methylpiperidine-1-sulfonamide] | 59 nM | 73.6% |  |
| CCc1cccc(NS(=O)(=O)N2CCC(Cc3ccc(F)cc3)CC2)n1 [Example 124, N-(6-ethylpyridin-2-yl)-4-(4-fluorobenzyl)pipendine-1-sulfonamide] | 7 nM |  | 88.4% |
| Cc1cccc(NS(=O)(=O)N2CCN(c3ncccn3)CC2)n1 [Example 125, N-(6-methylpyridin-2-yl)-4-pyrimidin-2-ylpiperazine-1-sulfonamide] | 28.5 nM | 75.1% |  |

More lines, now with the values ahead:

| Ki (11β-hsd-1 enzyme [1]) | inhibition (11β-hsd-1 enzyme [2]) | inhibition at 100 µM (11β-hsd-1 enzyme [2]; Table 2, inhibitor 0.1 mM as printed) | Compound |
| --- | --- | --- | --- |
| 6.9 nM | 100% |  | CCc1cccc(NS(=O)(=O)N2CCC(CCc3ccccc3)CC2)n1 [Example 104, N-(6-ethylpyridin-2-yl)-4-(2-phenylethyl)piperidine-1-sulfonamide] |
| 16 nM | 89.2% |  | CCc1cccc(NS(=O)(=O)N2CCC(c3ccccc3F)CC2)n1 [Example 113, N-(6-ethylpyridin-2-yl)-4-(2-fluorophenyl)piperidine-1-sulfonamide] |
| 18 nM | 100% |  | CCc1cccc(NS(=O)(=O)N2CCC(Cc3ccccc3)CC2)n1 [Example 116, 4-benzyl-N-(6-ethylpyridin-2-yl)piperidine-1-sulfonamide] |
| 37 nM | 93.1% |  | CCc1cccc(NS(=O)(=O)N2CCC(c3ccccc3OC)CC2)n1 [Example 119, N-(6-ethylpyridin-2-yl)-4-(2-methoxyphenyl)pipendine-1-sulfonamide] |
| 3.5 nM | 100% |  | CCc1cccc(NS(=O)(=O)N2CCC(c3ccccc3)CC2)n1 [Example 121, N-(6-ethylpyridin-2-yl)-4-phenylpiperidine-1-sulfanamide] |
| 11 nM | 91.7% |  | CCc1cccc(NS(=O)(=O)N2CCC(c3cccc(O)c3)CC2)n1 [Example 122, N-(6-ethylpyridin-2-yl)-4-(3-hydroxyphenyl)piperidine-1-sulfonamide] |
| 22 nM | 100% |  | CCc1cccc(NS(=O)(=O)N2CCC(Oc3ccccc3)CC2)n1 [Example 123, N-(6-ethylpyridin-2-yl)-4-phenoxypiperidine-1-sulfanamide] |
